The values that follow are results of earlier work, collected in US20230117397A1, “PIRFENIDONE FOR CORONAVIRUS TREATMENT” (Excalibur Pharmaceuticals, Inc., priority 2020, published 2023).

For data set [1] the following is noted: major urinary metabolite of pirfenidone.
The conditions of data set [2]: MALDI-FTICR MSI.
For data set [3] the following is noted: oral, healthy adults.
Assay in data set [4]: not given
This is another data set of the same source.

Data set [5] relates to IL-6. As to conditions: once daily 50 mg/kg/day or 100 mg/kg/day; dose dependent.
For data set [6], the system named is endotoxic shock. As to conditions: for survival: pretreatment 15 minutes before LPS.
In data set [7] the test system is TNF-α. The note with it: once daily 50 mg/kg/day or 100 mg/kg/day; dose dependent.
Assay in data set [8]: not given
The source holds these as a separate data set.

For data set [9], the system named is TNF-α. The note with it: pretreatment 5 minutes before LPS.
In data set [10] the test system is IFN-γ. As to conditions: pirfenidone pre-treatment before LPS.
The test system of data set [11] is IFN-γ. As to conditions: pirfenidone added after cell stimulation with endotoxin.
Data set [12] has as its system IL-12. The note with it: pirfenidone pre-treatment before LPS.
In data set [13] the test system is TNF-α. As to conditions: pirfenidone added after cell stimulation with endotoxin.
Data set [14] relates to IL-10. The note with it: pirfenidone pre-treatment; by 3 hours.
In data set [15] the test system is TNF-α.
In data set [16] the test system is silicosis (intratracheal silica slurry).
Data set [17] concerns IL-10. The note with it: once daily 50 mg/kg/day or 100 mg/kg/day; dose dependent.

The structures appear in SMILES notation. Like-named read-outs stand apart in the source and are kept apart here.

As to `O=C(O)c1ccc(=O)n(-c2ccccc2)c1` [5-carboxy-pirfenidone], the biological activity entry in data set [1] is reported as “limited to no biological activity”.

In the case of `Cc1ccc(=O)n(-c2ccccc2)c1` [pirfenidone, 5-methyl-1-phenyl-2-(1H)-pyridone], the “T1/2 in kidney tissue” value in [2] (kidney tissue) was 49 min. Besides, the “T1/2 in liver tissue” value in [2] (liver tissue) is 46 min. Further, the “T1/2 in lung tissue” value in data set [2] (lung tissue) was 67 min. Moreover, the terminal half-life entry in [3] is “approximately 2.5 hours”; in [8] (in vivo), “approximately 2 hours”. Besides, the figures for the “time to maximum levels in blood” value in data set [3] (fasting) and in [3] (post food) were 0.5 h and 2 h, respectively. Moreover, the “most common side effects” value (10% or more greater than placebo) was “nausea, dyspepsia and rash”. Moreover, the “AST/ALT elevation, incidence” value (in vivo) is listed as below 3%. Under “very rarely”, the “bilirubin elevation, incidence” value was 0.1%. Also, the half-life result in data set [4] (following from the clearance) is “less than 2 hours”. For the same molecule, in data set [4] (oral administration), the drug clearance result is on record as “approximately 30 ml/min/kg”. Besides, the IL-6 result in [5] was “significant reduction”. Moreover, the survival in data set [6] (100 mg/kg, 4/8) is recorded as 50%; in data set [6] (500 mg/kg, 8/8), 100%. Moreover, the values for the protection from death entry in data set [6] (pretreatment 3 hours before LPS) and in data set [6] (pretreatment 6 hours or more before LPS) were “partial protection” and “none”, respectively. Besides, the “survived (survivors/animals)” value is given as 5/5 in [6] (single oral dose 1 hour after LPS), 4/5 in data set [6] (single oral dose 3 hours after LPS) and 1/5 in data set [6] (single oral dose 5 hours after LPS). In addition, in data set [7], the TNF-α result is recorded as “significant reduction”. For the same molecule, the “time to maximum serum concentration” value in data set [8] (after dosing) is on record as “within an hour”. Besides, the TNF-α levels suppressed in data set [9] was 97%. Besides, in data set [10], the IFN-γ inhibited is given as 91%. Further, the “levels of secreted IFN-γ protein” value in [11] is “significantly decrease”. Besides, the “steady state levels of IFN-γ RNA” value in [11] was “did not change”. Besides, in data set [12], the IL-12 suppressed was 84%. Moreover, the “levels of secreted TNF-α protein” value in data set [13] is on record as “significantly decrease”. For the same molecule, the “steady state levels of TNF-α RNA” value in data set [13] is on record as “did not change”. The IL-10 expression enhanced result in data set [14] was “approximately 27 fold”. For the same molecule, in data set [15] (200 mg/kg immediately after LPS), the TNF-α expression result is recorded as “inhibited”. Also, in data set [15] (200 mg/kg, 30 or 60 minutes before or after LPS), the TNF-α expression inhibited result is “not”. Further, the “dose response difference in inflammation and fibrosis” value in [16] (between the 50 mg/kg/day and 100 mg/kg/day treatment groups) was “approximately 15%”. Moreover, in [16] (once daily 50 mg/kg/day or 100 mg/kg/day), the “inflammation and resulting fibrosis” value is “significantly decreased”. For the same molecule, in [17], the IL-10 result is listed as “significant reduction”.
